The target in experiment [1] is Protein kinase C beta type (Homo sapiens) (UniProt P05771). Put plainly: Inhibition of human recombinant PKCb at 40 nM related to control ULK1.
Experiment [2] deals with Serine/threonine-protein kinase PAK 1 (Homo sapiens) (UniProt Q13153). Put plainly: Inhibition of human recombinant PAK1 at 500 nM in presence of ATP by radiometric assay relative to control.
The target in experiment [3] is Wee1-like protein kinase (Homo sapiens) (UniProt P30291). Put plainly: Inhibition of human recombinant Wee1 at 500 nM in presence of ATP by radiometric assay relative to control.
Sequence of Wee1-like protein kinase (Homo sapiens) (P30291 whole entry, looked up): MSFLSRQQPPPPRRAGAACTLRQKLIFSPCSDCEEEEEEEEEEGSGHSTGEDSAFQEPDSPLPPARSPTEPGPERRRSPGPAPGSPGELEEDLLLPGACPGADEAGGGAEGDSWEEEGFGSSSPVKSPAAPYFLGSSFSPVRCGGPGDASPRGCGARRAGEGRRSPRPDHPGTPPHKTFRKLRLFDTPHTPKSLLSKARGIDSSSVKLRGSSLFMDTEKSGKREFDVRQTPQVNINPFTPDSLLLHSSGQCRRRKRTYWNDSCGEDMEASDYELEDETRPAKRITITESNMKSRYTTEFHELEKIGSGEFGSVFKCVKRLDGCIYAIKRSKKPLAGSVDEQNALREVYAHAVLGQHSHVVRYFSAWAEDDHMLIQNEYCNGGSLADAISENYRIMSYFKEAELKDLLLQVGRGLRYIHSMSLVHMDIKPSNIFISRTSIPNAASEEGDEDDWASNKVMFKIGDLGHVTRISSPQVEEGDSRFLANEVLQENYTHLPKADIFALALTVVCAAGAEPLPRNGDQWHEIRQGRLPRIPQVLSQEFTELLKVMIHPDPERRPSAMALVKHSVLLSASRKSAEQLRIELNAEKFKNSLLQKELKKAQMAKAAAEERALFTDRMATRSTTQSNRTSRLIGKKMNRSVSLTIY
The target of experiment [4] is T1, Dual specificity mitogen-activated protein kinase kinase 6 (Homo sapiens) (UniProt P52564).
T1 sequence (whole entry): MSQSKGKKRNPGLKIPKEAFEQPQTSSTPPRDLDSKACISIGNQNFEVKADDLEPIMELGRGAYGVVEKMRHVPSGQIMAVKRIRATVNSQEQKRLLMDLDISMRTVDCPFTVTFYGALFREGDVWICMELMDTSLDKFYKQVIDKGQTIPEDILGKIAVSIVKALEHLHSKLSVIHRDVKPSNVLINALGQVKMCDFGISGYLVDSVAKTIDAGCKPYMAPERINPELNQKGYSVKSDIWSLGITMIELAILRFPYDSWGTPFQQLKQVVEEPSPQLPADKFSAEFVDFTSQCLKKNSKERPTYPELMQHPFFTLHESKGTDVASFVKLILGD
Put plainly: Inhibition of human recombinant MAP2K6 at 500 nM in presence of ATP by radiometric assay relative to control.

Experiment [5] deals with Ephrin type-A receptor 7 (Homo sapiens) (UniProt Q15375). Put plainly: Inhibition of human recombinant EphA7 at 15 nM in presence of ATP by radiometric assay relative to control.
Sequence of Ephrin type-A receptor 7 (Homo sapiens) (Q15375 28-998 limits assumed): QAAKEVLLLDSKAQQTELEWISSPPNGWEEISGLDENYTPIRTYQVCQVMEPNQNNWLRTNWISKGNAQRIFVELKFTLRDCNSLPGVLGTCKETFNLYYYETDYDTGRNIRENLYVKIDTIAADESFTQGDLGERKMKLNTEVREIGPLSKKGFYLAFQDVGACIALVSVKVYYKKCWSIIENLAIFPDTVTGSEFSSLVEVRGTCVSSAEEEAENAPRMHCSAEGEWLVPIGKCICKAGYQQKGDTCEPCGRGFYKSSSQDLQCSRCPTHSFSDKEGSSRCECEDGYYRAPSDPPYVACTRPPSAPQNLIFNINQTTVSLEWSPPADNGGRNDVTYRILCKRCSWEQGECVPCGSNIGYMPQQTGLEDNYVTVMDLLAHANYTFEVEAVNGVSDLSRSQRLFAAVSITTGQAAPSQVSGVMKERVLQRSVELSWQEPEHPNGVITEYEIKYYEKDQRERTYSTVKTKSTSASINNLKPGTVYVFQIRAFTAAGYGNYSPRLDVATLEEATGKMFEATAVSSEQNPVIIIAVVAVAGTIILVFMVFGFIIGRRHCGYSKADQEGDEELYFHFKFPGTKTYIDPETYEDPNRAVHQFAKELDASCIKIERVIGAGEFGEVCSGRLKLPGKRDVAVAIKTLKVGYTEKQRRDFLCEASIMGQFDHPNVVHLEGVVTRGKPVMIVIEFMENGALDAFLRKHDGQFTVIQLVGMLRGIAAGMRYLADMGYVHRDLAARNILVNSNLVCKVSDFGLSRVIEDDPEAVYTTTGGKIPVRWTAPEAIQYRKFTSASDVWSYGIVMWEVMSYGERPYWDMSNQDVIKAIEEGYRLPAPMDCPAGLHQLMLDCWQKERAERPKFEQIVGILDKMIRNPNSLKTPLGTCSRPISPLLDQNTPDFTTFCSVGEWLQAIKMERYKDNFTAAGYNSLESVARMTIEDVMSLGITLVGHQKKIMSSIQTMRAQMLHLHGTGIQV
Experiment [6] deals with Myosin light chain kinase 2, skeletal/cardiac muscle (Homo sapiens) (UniProt Q9H1R3). Put plainly: Inhibition of human recombinant skMLCK at 15 nM related to control ULK1.
Sequence of Myosin light chain kinase 2, skeletal/cardiac muscle (Homo sapiens) (Q9H1R3 whole entry): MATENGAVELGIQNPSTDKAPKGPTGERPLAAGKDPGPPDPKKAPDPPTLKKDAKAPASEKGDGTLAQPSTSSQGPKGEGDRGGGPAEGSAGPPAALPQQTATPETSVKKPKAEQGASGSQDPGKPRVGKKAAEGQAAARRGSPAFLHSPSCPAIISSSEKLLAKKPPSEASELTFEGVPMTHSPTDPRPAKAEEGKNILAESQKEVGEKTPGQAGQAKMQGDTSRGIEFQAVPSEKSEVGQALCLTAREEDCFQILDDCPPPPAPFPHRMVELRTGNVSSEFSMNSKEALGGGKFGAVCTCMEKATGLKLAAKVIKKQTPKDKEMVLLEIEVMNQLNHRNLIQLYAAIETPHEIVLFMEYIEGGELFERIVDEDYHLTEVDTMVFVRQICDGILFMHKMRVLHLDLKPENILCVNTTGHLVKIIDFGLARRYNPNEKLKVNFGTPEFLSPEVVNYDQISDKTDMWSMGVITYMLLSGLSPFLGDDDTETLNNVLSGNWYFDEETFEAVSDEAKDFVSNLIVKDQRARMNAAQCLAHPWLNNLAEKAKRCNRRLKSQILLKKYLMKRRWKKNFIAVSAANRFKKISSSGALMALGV
Experiment [7] concerns the target T2, Ephrin type-B receptor 2 (Homo sapiens) (UniProt P29323).
T2 sequence (whole entry): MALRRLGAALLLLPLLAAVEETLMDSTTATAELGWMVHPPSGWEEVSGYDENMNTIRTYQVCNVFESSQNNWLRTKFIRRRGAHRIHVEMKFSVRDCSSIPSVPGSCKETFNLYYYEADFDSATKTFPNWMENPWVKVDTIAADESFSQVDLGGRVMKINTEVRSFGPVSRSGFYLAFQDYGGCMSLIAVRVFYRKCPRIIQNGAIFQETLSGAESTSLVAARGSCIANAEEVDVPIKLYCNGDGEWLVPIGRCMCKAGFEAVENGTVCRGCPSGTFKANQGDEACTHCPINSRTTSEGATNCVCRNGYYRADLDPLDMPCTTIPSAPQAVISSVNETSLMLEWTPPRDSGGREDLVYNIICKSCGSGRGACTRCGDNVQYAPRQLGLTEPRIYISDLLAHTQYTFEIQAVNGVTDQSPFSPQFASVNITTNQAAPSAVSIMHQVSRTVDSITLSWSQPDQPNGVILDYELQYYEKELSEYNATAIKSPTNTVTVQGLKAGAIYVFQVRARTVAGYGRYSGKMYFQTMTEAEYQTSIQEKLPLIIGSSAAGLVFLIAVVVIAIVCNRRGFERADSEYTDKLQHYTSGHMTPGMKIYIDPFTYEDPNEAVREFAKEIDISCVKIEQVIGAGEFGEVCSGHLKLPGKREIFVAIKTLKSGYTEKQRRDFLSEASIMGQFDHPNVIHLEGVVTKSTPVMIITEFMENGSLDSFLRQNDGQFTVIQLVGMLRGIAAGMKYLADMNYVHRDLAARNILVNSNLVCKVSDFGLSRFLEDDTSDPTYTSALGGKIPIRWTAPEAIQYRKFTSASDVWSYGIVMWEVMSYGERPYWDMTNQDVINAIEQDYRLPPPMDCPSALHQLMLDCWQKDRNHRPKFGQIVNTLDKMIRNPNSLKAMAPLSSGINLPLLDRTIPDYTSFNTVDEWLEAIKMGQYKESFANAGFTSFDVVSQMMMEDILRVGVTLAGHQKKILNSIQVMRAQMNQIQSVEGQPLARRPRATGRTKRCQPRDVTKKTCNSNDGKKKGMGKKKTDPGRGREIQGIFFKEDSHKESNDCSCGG
Put plainly: Inhibition of human recombinant EphB2 at 15 nM in presence of ATP by radiometric assay relative to control.

The target in experiment [8] is Tyrosine-protein kinase FRK (Homo sapiens) (UniProt P42685). Put plainly: Inhibition of human recombinant FRK at 15 nM in presence of ATP by radiometric assay relative to control.
Sequence of Tyrosine-protein kinase FRK (Homo sapiens) (P42685 whole entry): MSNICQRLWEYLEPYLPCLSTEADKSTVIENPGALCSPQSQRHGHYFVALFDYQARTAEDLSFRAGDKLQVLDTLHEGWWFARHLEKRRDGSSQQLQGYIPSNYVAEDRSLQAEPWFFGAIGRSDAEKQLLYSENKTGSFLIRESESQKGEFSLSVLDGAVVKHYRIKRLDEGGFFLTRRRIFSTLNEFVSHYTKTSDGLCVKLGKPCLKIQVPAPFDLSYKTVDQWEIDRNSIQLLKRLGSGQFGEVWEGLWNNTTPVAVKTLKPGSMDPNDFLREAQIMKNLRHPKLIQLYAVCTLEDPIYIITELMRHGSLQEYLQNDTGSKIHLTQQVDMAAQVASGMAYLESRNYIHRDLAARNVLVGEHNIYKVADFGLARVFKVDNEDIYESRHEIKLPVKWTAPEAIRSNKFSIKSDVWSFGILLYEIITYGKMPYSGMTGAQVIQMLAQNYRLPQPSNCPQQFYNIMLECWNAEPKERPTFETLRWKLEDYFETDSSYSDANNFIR
Experiment [9] has as its target T3, Ephrin type-B receptor 3 (Homo sapiens) (UniProt P54753).
T3 sequence (whole entry): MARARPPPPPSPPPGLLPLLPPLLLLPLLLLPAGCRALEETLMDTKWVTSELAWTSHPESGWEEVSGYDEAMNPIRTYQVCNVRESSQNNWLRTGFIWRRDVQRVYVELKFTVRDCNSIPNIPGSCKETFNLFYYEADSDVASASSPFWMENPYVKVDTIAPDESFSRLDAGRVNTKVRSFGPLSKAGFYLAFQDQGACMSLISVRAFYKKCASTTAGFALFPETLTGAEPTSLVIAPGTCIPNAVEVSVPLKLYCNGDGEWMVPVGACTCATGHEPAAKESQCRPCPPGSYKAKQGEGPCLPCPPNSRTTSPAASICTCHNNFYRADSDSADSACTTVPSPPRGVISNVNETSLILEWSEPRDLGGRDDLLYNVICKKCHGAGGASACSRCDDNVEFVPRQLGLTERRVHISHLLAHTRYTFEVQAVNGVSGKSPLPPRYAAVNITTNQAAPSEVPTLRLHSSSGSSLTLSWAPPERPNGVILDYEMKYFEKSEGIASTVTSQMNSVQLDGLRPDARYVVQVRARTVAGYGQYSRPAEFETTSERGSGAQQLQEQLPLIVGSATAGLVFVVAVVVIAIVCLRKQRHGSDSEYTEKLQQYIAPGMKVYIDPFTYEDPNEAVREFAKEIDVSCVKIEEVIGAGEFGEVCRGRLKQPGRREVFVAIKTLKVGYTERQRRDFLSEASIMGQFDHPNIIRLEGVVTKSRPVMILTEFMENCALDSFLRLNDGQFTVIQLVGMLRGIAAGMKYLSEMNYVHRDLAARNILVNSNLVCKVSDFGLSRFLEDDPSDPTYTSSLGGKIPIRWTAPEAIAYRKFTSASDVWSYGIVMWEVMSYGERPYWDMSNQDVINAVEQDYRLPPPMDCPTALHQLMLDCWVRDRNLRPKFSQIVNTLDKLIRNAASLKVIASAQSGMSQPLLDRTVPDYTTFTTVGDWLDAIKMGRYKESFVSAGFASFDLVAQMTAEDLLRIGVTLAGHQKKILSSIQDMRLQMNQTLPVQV
Put plainly: Inhibition of human recombinant EphB3 at 15 nM in presence of ATP by radiometric assay relative to control.

The term inhibition denotes the change of the read-out against control, counted positive when it falls.

Sequence of Serine/threonine-protein kinase PAK 1 (Homo sapiens) (Q13153 whole entry, looked up): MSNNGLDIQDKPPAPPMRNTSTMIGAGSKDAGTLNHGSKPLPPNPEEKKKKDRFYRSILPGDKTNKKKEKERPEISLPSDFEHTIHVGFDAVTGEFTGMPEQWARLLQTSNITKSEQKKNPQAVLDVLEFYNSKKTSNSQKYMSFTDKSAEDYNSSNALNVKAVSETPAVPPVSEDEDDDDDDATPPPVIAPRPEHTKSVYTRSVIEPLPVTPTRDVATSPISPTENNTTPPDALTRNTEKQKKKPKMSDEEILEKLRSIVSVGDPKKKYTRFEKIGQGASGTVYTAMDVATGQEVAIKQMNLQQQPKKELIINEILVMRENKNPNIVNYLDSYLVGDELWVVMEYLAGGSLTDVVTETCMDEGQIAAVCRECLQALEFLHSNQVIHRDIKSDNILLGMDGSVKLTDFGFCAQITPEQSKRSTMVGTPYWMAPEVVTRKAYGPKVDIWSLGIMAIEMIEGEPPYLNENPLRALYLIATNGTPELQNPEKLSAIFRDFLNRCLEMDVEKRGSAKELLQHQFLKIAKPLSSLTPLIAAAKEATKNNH
Sequence of Protein kinase C beta type (Homo sapiens) (P05771 2-671 limits assumed): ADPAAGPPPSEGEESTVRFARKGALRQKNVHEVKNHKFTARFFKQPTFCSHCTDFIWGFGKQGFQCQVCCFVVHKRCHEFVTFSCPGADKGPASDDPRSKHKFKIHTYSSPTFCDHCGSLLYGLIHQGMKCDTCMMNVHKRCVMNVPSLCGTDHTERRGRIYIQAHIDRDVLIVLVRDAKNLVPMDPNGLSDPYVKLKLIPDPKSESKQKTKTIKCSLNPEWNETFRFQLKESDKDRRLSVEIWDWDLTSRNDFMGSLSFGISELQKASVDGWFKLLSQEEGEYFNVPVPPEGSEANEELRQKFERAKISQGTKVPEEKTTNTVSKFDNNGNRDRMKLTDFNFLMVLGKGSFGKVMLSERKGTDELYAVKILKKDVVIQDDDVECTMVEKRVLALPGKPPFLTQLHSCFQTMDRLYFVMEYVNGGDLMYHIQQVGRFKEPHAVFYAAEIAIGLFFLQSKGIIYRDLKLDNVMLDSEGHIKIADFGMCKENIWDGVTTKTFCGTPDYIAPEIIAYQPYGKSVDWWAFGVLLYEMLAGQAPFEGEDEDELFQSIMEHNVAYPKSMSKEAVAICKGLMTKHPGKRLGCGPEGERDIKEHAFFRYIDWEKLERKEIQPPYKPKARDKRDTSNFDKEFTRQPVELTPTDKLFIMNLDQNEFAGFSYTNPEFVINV

With `O=C(N[C@@H](C1CC1)C(F)(F)F)c1cc(-c2cnn3cc(-c4ccc(F)cc4)cnc23)cs1`, the fold change (FC) in [1] stood at 0.04.

Regarding `CNC(=O)c1ccccc1Oc1nc(Nc2cc(OC)c(OC)c(OC)c2)ncc1Br`, the inhibition in [2] worked out at 20%; in experiment [3], 16%; in experiment [4], 5%.

With `CC(C)[C@H](NC(=O)c1cc(-c2cnn3cc(-c4ccc(OCCN5CCCCC5)cc4)cnc23)cs1)C(F)(F)F`, the inhibition in [5] was found to be 0%; in experiment [7] it was 7%; in [8] it was 13%; in experiment [9], 0%. In experiment [6], the fold change (FC) is 0.13.

The values are drawn from ChEMBL document CHEMBL5653631, “A Potent and Selective ULK1 Inhibitor Suppresses Autophagy and Sensitizes Cancer Cells to Nutrient Stress” (iScience, 2018).
